# Results reported in PubChem BioAssay (NCI).
#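 Briefly, cells in 96-well plates were exposed to five compound concentrations for 48 h, and endpoints were estimated by linear interpolation. Abbreviation: GI50, concentration required for 50% inhibition of growth. TGI: concentration producing complete growth inhibition.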
# Key:
# Experiment in all cases: inhibition of tumour cell growth, NCI panel, 48 h
# 786-0 renal = test system: 786-0 renal
# A498 renal = test system: A498 renal
# A549 NSCLC = test system: A549 NSCLC
# ACHN renal = test system: ACHN renal
# BT-549 breast = test system: BT-549 breast
# CAKI-1 renal = test system: CAKI-1 renal
# CCRF-CEM leukemia = test system: CCRF-CEM leukemia
# COLO 205 colon = test system: COLO 205 colon
# DU-145 prostate = test system: DU-145 prostate
# EKVX NSCLC = test system: EKVX NSCLC
# HCC-2998 colon = test system: HCC-2998 colon
# HCT-116 colon = test system: HCT-116 colon
# HCT-15 colon = test system: HCT-15 colon
# HL-60(TB) leukemia = test system: HL-60(TB) leukemia
# HOP-62 NSCLC = test system: HOP-62 NSCLC
# HOP-92 NSCLC = test system: HOP-92 NSCLC
# HS 578T breast = test system: HS 578T breast
# HT29 colon = test system: HT29 colon
# IGROV1 ovarian = test system: IGROV1 ovarian
# K-562 leukemia = test system: K-562 leukemia
# KM12 colon = test system: KM12 colon
# LOX IMVI melanoma = test system: LOX IMVI melanoma
# M14 melanoma = test system: M14 melanoma
# MALME-3M melanoma = test system: MALME-3M melanoma
# MCF7 breast = test system: MCF7 breast
# MDA-MB-231 breast = test system: MDA-MB-231 breast
# MDA-MB-435 = test system: MDA-MB-435
# MOLT-4 leukemia = test system: MOLT-4 leukemia
# NCI-H226 lung = test system: NCI-H226 lung
# NCI-H23 lung = test system: NCI-H23 lung
# NCI-H460 lung = test system: NCI-H460 lung
# NCI-H522 lung = test system: NCI-H522 lung
# NCI/ADR-RES ovarian = test system: NCI/ADR-RES ovarian
# OVCAR-3 ovarian = test system: OVCAR-3 ovarian
# OVCAR-4 ovarian = test system: OVCAR-4 ovarian
# OVCAR-5 ovarian = test system: OVCAR-5 ovarian
# OVCAR-8 ovarian = test system: OVCAR-8 ovarian
# PC-3 prostate = test system: PC-3 prostate
# RPMI-8226 leukemia = test system: RPMI-8226 leukemia
# RXF 393 renal = test system: RXF 393 renal
# SF-268 CNS = test system: SF-268 CNS
# SF-295 CNS = test system: SF-295 CNS
# SF-539 CNS = test system: SF-539 CNS
# SK-MEL-2 melanoma = test system: SK-MEL-2 melanoma
# SK-MEL-28 melanoma = test system: SK-MEL-28 melanoma
# SK-MEL-5 melanoma = test system: SK-MEL-5 melanoma
# SK-OV-3 ovarian = test system: SK-OV-3 ovarian
# SN12C renal = test system: SN12C renal
# SNB-19 CNS = test system: SNB-19 CNS
# SNB-75 CNS = test system: SNB-75 CNS
# SW-620 colon = test system: SW-620 colon
# T-47D breast = test system: T-47D breast
# TK-10 renal = test system: TK-10 renal
# U251 CNS = test system: U251 CNS
# UACC-257 melanoma = test system: UACC-257 melanoma
# UACC-62 melanoma = test system: UACC-62 melanoma
# UO-31 renal = test system: UO-31 renal
smiles,measurement,setting,value
N#Cc1cc(-c2nc3cc(F)ccc3s2)ccc1N,TGI,786-0 renal,> 100 µM
same,TGI,A498 renal,> 56.4 µM
same,TGI,A549 NSCLC,> 68.4 µM
same,TGI,ACHN renal,62.5 µM
same,TGI,BT-549 breast,29.1 µM
same,TGI,CAKI-1 renal,> 100 µM
same,TGI,CCRF-CEM leukemia,> 100 µM
same,TGI,COLO 205 colon,> 100 µM
same,TGI,DU-145 prostate,> 100 µM
same,TGI,EKVX NSCLC,98.8 µM
same,TGI,HCC-2998 colon,0.0604 µM
same,TGI,HCT-116 colon,> 100 µM
same,TGI,HCT-15 colon,> 100 µM
same,TGI,HL-60(TB) leukemia,> 100 µM
same,TGI,HOP-62 NSCLC,> 100 µM
same,TGI,HOP-92 NSCLC,29.6 µM
same,TGI,HS 578T breast,> 100 µM
same,TGI,HT29 colon,> 100 µM
same,TGI,IGROV1 ovarian,13.9 µM
same,TGI,K-562 leukemia,> 100 µM
same,TGI,KM12 colon,> 32.8 µM
same,TGI,LOX IMVI melanoma,> 100 µM
same,TGI,M14 melanoma,99.7 µM
same,TGI,MALME-3M melanoma,> 100 µM
same,TGI,MCF7 breast,0.583 µM
same,TGI,MDA-MB-231 breast,> 85.1 µM
same,TGI,MDA-MB-435,> 100 µM
same,TGI,MOLT-4 leukemia,> 100 µM
same,TGI,NCI-H226 lung,79.3 µM
same,TGI,NCI-H23 lung,0.848 µM
same,TGI,NCI-H460 lung,17.8 µM
same,TGI,NCI-H522 lung,> 100 µM
same,TGI,NCI/ADR-RES ovarian,> 100 µM
same,TGI,OVCAR-3 ovarian,> 100 µM
same,TGI,OVCAR-4 ovarian,> 93.5 µM
same,TGI,OVCAR-5 ovarian,2.9 µM
same,TGI,OVCAR-8 ovarian,> 100 µM
same,TGI,PC-3 prostate,> 100 µM
same,TGI,RPMI-8226 leukemia,> 100 µM
same,TGI,RXF 393 renal,14.1 µM
same,TGI,SF-268 CNS,> 78.3 µM
same,TGI,SF-295 CNS,> 100 µM
same,TGI,SF-539 CNS,56.7 µM
same,TGI,SK-MEL-2 melanoma,> 66.8 µM
same,TGI,SK-MEL-28 melanoma,> 100 µM
same,TGI,SK-MEL-5 melanoma,> 100 µM
same,TGI,SK-OV-3 ovarian,> 92.3 µM
same,TGI,SN12C renal,> 100 µM
same,TGI,SNB-19 CNS,> 66.6 µM
same,TGI,SNB-75 CNS,6.68 µM
same,TGI,SW-620 colon,> 100 µM
same,TGI,T-47D breast,0.22 µM
same,TGI,TK-10 renal,1.69 µM
same,TGI,U251 CNS,> 82.1 µM
same,TGI,UACC-257 melanoma,> 100 µM
same,TGI,UACC-62 melanoma,> 87.7 µM
same,TGI,UO-31 renal,> 100 µM
O=c1c2c3c(sc2n2c(CCl)nnc2n1Cc1ccccc1)CCCC3,GI50,786-0 renal,2.01 µM
same,TGI,786-0 renal,3.75 µM
same,GI50,A498 renal,9.17 µM
same,TGI,A498 renal,23.1 µM
same,GI50,A549 NSCLC,2.79 µM
same,TGI,A549 NSCLC,7.3 µM
same,GI50,ACHN renal,1.6 µM
same,TGI,ACHN renal,2.96 µM
same,GI50,BT-549 breast,2.41 µM
same,TGI,BT-549 breast,9.44 µM
same,GI50,CAKI-1 renal,2.9 µM
same,TGI,CAKI-1 renal,7.79 µM
same,GI50,CCRF-CEM leukemia,0.434 µM
same,GI50,COLO 205 colon,1.94 µM
same,TGI,COLO 205 colon,4.05 µM
same,GI50,DU-145 prostate,2.45 µM
same,TGI,DU-145 prostate,6.18 µM
same,GI50,EKVX NSCLC,7.96 µM
same,TGI,EKVX NSCLC,27.9 µM
same,GI50,HCC-2998 colon,1.74 µM
same,TGI,HCC-2998 colon,3.39 µM
same,GI50,HCT-116 colon,1.51 µM
same,TGI,HCT-116 colon,3.13 µM
same,GI50,HCT-15 colon,1.86 µM
same,TGI,HCT-15 colon,5.34 µM
same,GI50,HL-60(TB) leukemia,2.16 µM
same,TGI,HL-60(TB) leukemia,> 19.8 µM
same,GI50,HOP-62 NSCLC,3.55 µM
same,TGI,HOP-62 NSCLC,7.87 µM
same,GI50,HOP-92 NSCLC,1.83 µM
same,TGI,HOP-92 NSCLC,3.8 µM
same,GI50,HS 578T breast,1.92 µM
same,TGI,HS 578T breast,5.9 µM
same,GI50,HT29 colon,1.95 µM
same,TGI,HT29 colon,4.05 µM
same,GI50,IGROV1 ovarian,0.0645 µM
same,TGI,IGROV1 ovarian,1.53 µM
same,GI50,K-562 leukemia,2.33 µM
same,TGI,K-562 leukemia,5.39 µM
same,GI50,KM12 colon,2.39 µM
same,TGI,KM12 colon,6.05 µM
same,GI50,LOX IMVI melanoma,0.284 µM
same,TGI,LOX IMVI melanoma,1.32 µM
same,GI50,M14 melanoma,1.79 µM
same,TGI,M14 melanoma,5.43 µM
same,GI50,MALME-3M melanoma,3.48 µM
same,TGI,MALME-3M melanoma,10.7 µM
same,GI50,MCF7 breast,1.75 µM
same,TGI,MCF7 breast,4.54 µM
same,GI50,MDA-MB-231 breast,2.22 µM
same,TGI,MDA-MB-231 breast,5.23 µM
same,GI50,MDA-MB-435,3.4 µM
same,TGI,MDA-MB-435,11 µM
same,GI50,MOLT-4 leukemia,3.62 µM
same,TGI,MOLT-4 leukemia,17.1 µM
same,GI50,NCI-H226 lung,1.74 µM
same,TGI,NCI-H226 lung,4.37 µM
same,GI50,NCI-H23 lung,2.27 µM
same,TGI,NCI-H23 lung,8.43 µM
same,GI50,NCI-H460 lung,2.58 µM
same,TGI,NCI-H460 lung,7.98 µM
same,GI50,NCI-H522 lung,1.89 µM
same,TGI,NCI-H522 lung,4.17 µM
same,GI50,NCI/ADR-RES ovarian,3.84 µM
same,TGI,NCI/ADR-RES ovarian,> 51.1 µM
same,GI50,OVCAR-3 ovarian,1.76 µM
same,TGI,OVCAR-3 ovarian,3.21 µM
same,GI50,OVCAR-4 ovarian,2.79 µM
same,TGI,OVCAR-4 ovarian,7.74 µM
same,GI50,OVCAR-5 ovarian,2.34 µM
same,TGI,OVCAR-5 ovarian,5.23 µM
same,GI50,OVCAR-8 ovarian,2.28 µM
same,TGI,OVCAR-8 ovarian,6.19 µM
same,GI50,PC-3 prostate,1.85 µM
same,TGI,PC-3 prostate,4.01 µM
same,GI50,RPMI-8226 leukemia,1.97 µM
same,TGI,RPMI-8226 leukemia,5.05 µM
same,GI50,RXF 393 renal,1.98 µM
same,TGI,RXF 393 renal,4.17 µM
same,GI50,SF-268 CNS,1.83 µM
same,TGI,SF-268 CNS,3.72 µM
same,GI50,SF-539 CNS,3.24 µM
same,TGI,SF-539 CNS,10.1 µM
same,GI50,SK-MEL-2 melanoma,1.53 µM
same,TGI,SK-MEL-2 melanoma,2.98 µM
same,GI50,SK-MEL-28 melanoma,1.7 µM
same,TGI,SK-MEL-28 melanoma,3.16 µM
same,GI50,SK-MEL-5 melanoma,2.94 µM
same,TGI,SK-MEL-5 melanoma,7.62 µM
same,GI50,SK-OV-3 ovarian,13.4 µM
same,TGI,SK-OV-3 ovarian,48.8 µM
same,GI50,SN12C renal,1.62 µM
same,TGI,SN12C renal,3.86 µM
same,GI50,SNB-19 CNS,15.8 µM
same,TGI,SNB-19 CNS,32.1 µM
same,GI50,SNB-75 CNS,4.51 µM
same,TGI,SNB-75 CNS,9.03 µM
same,GI50,SW-620 colon,1.76 µM
same,TGI,SW-620 colon,3.51 µM
same,GI50,T-47D breast,2.5 µM
same,TGI,T-47D breast,6.5 µM
same,GI50,TK-10 renal,5.25 µM
same,TGI,TK-10 renal,10.7 µM
same,GI50,U251 CNS,1.6 µM
same,TGI,U251 CNS,3.03 µM
same,GI50,UACC-257 melanoma,2.12 µM
same,TGI,UACC-257 melanoma,4.29 µM
same,GI50,UACC-62 melanoma,1.99 µM
same,TGI,UACC-62 melanoma,5.64 µM
same,GI50,UO-31 renal,1.51 µM
same,TGI,UO-31 renal,2.88 µM
